Earlier results, collected in patent US20250170094A1 (priority 2023, published 2025).
Like-named read-outs stand apart in the source and are kept apart here.

Assays:
[1] = not given; remark: listed apart in the source

SMILES: CCC(CC)[C@H](NC(C)=O)[C@@H]1[C@H](O)[C@@H](C(=O)O)C[C@H]1NC(=N)N [peramivir, (1S,2S,3R,4R)-3-[(1S)-1-(acetylamino)-2-ethylbutyl]-4-guanidino-2-hydroxycyclopentanecarboxylic acid]
- solubility (pH 1.0): about 59 mg/ml
- solubility (pH≥5): ≤ 20 mg/mL
- oil-water partition coefficient LogP[n-octanol/water] [1]: −1.16
